Test results as given in BindingDB's records for doi:10.1016/S0960-894X(97)00285-0 (1997).
Counter-ions that a name gives are not always drawn.

Molecular target: Prostate-specific antigen (Homo sapiens) (UniProt P07288)
Assay: Concentration required for inhibition of 50% of the cleavage of para-nitroanilide from MeO-Suc-Arg-Pro-Tyr-pNA.HCl by Prostate specific antigen PSA

Sequence of Prostate-specific antigen (Homo sapiens) (P07288 whole entry, looked up): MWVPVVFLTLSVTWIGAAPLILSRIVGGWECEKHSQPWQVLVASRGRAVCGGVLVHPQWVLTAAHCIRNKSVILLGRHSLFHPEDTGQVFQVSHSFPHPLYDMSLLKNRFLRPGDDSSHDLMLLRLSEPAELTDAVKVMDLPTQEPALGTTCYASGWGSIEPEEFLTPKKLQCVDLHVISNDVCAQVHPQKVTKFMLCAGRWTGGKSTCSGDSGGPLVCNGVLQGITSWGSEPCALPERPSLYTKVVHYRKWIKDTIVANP

IC50 [nM] | SMILES
> 30000 | O=C(O)c1ccc(COC(=O)[C@@H]2[C@H](Cc3ccccc3)C(=O)N2C(=O)Cc2cccc(C(=O)O)c2)cc1 [3-Benzyl-1-[2-(3-carboxy-phenyl)-acetyl]-4-oxo-azetidine-2-carboxylic acid 4-carboxy-benzyl ester]
1340 | NCc1ccc(COC(=O)[C@@H]2[C@H](Cc3ccccc3)C(=O)N2C(=O)Cc2cccc(C(=O)O)c2)cc1 [(2S,3S)-3-Benzyl-1-[2-(3-carboxy-phenyl)-acetyl]-4-oxo-azetidine-2-carboxylic acid 4-aminomethyl-benzyl ester; TFA]
